Test results published in US20230150951A1, “2,5- OR 2,6-DISUBSTITUTED HYDROQUINONE DERIVATIVES WITH AT LEAST ONE CARBOXY, SULFO OR AMIDO GROUP USEFUL AS MEDICAMENTS” (OM PHARMA SA, priority 2020, published 2023).

Legend:
Format in all cases: cell-based
Human neutrophils [1] = assay: Neutrophil adhesion under static conditions; settings: fMLP-stimulated adhesion to fibrinogen; method: 40 μM and 80 μM, concentration of the value not stated
Protocol: Human neutrophils obtained from buffy coats of healthy donors were suspended at 3×10^6/ml in adhesion buffer (PBS containing 1 mM CaCl2)/MgCl2 and 10% FCS, pH 7.2). Neutrophils were preincubated for 30 min at 37° C. with 40 μM and 80 μM of the compounds.
Adhesion assays were performed on 18-well glass slides coated for 18 h at 4° C. with human fibrinogen (20 μg/well in endotoxin-free PBS); 20 μl of cell suspension were added to each well and stimulated for 1 min at 37° C. with 5 μl of fMLP 1 nM final concentration. After washing, adherent cells were fixed in glutaraldehyde 1.5% in PBS and counted by computer-assisted enumeration. Statistical analysis was performed by calculating mean and standard deviation (SD); significance was calculated by unpaired t-test. All statistical analyses were performed using GraphPad Prism 6 (GraphPad Software).

FGF-2 = target: T1, FGF-2 (Homo sapiens, UniProt P09038); assay: FGF-2 induced sprouting of HUVEC, spheroid-based cellular angiogenesis assay; settings: FGF-2 25 ng/mL preincubated with compound, 24 h
T1 construct: purchased Peprotech 100-18C
Protocol: (§1) Aim of this in vitro method is to assess compounds effects on FGF-2, FGF-1, or VEGF-A induced sprouting of human umbilical vein endothelial cells (HUVEC) in the spheroid-based cellular angiogenesis assay. Before adding the growth factors to the cells, they were preincubated with the compound. Sunitinib was tested as a control (without preincubation).
(§2) IC50 values determined for the tested compounds are expressed in microM [μM] and the values for the inhibition of FGF-1, FGF2 and VEGF-A induced growth (sprouting) are listed after each compound in the examples after chemical characterization.
(§3) Sprouting test was performed on the compounds dissolved in DMSO to reach 100-fold concentrated stock solutions and dissolved in culture media. Sunitinib as reference compound was provided by ProQinase GmbH. Growth factors were purchased from rhFGF-basic (FGF-2), Peprotech, New Jersey, USA, #100-18C, Lot #0415571; rhFGF-acidic (FGF-1), Peprotech, New Jersey, USA, #100-17A, Lot #031207; hVEGF-A165 (ProQinase GmbH, Freiburg, Germany; 05.02.2010) were used for stimulation of HUVEC cells growth.
(§4) Test system: Endothelial cells from human umbilical vein (HUVEC) from pooled donors were stored frozen with 70% medium, 20% FCS, 10% DMSO at about 1×10^6 cells/ampoule. HUVEC cells, primary human umbilical vein endothelial cells (PromoCell, Heidelberg, Germany), were used after passage 3 to 4. Morphology of the cells are adherent, cobblestone-like growing as monolayer and were cultured in endothelial cell growth and basal medium (ECGM/ECBM, PromoCell). The subculture was split 1:3; every 3-5 days, seed out at ca. 1×10^4 cells/cm^2 and incubated at 37° C. with 5% CO2 with a doubling time 24-48 hours
(§5) Dilution of test compounds: 100× concentrated solutions (concerning to the final assay concentrations) of each test compound were prepared with the appropriate solvent (in DMSO or in water). These 100×compound solutions were further diluted in endothelial cell growth and basal medium (ECBM) 1:7.5 to get a 13.33× concentrated solution. 75 μl of the 13.33×solution was subsequently mixed with 25 μl of 40× concentrated stimulus (solved in ECBM), resulting in a 10×concentrated stimulus/compound mixture. This mixture (100 μl) was incubated for 30 min at 37° C. and then added to 900 μl gel, containing the HUVEC spheroids (resulting in the final assay concentration).
(§6) Test method: the experiments were pursued in modification of the originally published protocol (Korff and Augustin: J Cell Sci 112: 3249-58, 1999). In brief, spheroids were prepared as described (Korff and Augustin: J Cell Biol 143: 1341-52, 1998) by pipetting 400 HUVEC in a hanging drop on plastic dishes to allow overnight spheroid aggregation. 50 HUVEC spheroids were then seeded in 0.9 ml of a collagen gel and pipetted into individual wells of a 24 well plate to allow polymerization. The test compounds were preincubated with the growth factors (FGF-1, FGF-2 or VEGF-A final concentration 25 ng/mL) in a 10-fold concentrated solution and subsequently, 100 μl of this solution was added on top of the polymerized gel. All compounds were diluted in solvent (DMSO or water) as 100×stocks first (which means 100×stocks of each final assay concentration were prepared in solvent). Subsequently, these stocks were further diluted in medium (resulting in the 13.33×stocks of each final assay concentration) with final concentrations tested: 100, 50, 25, 12.5, 6.25, 3.13 and 1.56×10^−6 M). Plates were incubated at 37° C. for 24 hours and fixed by adding 4% PFA (Roth, Karlsruhe, Germany).
(§7) Quantification of growth factor inhibition: sprouting intensity of HUVEC spheroids treated with the growth factor and the inhibitors were quantitated by an image analysis system determining the cumulative sprout length per spheroid (CSL).

VEGF-A = target: T2, VEGF-A (Homo sapiens, UniProt P15692); assay: VEGF-A induced sprouting of HUVEC, spheroid-based cellular angiogenesis assay; settings: VEGF-A 25 ng/mL preincubated with compound, 24 h, read-out: VEGF-A1 IC50
T2 construct: purchased ProQinase GmbH
T2 sequence (P15692 27-191 isoform P15692-4): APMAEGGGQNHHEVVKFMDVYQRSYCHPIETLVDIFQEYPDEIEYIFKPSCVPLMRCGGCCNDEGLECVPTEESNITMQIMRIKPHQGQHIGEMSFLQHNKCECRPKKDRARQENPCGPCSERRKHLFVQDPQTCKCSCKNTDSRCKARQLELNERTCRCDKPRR
Protocol: as §1, §2, §3, §4, §5, §6, §7

Human neutrophils [2] = assay: Inhibition of ROS production in human neutrophils (isoluminol chemiluminescence); settings: fMLP+TNF-α stimulated PMN
Description: NADPH oxidase, located in the plasma membrane and in the membranes of specific granules, produces superoxide anions from which other ROS, such as hydrogen peroxide, singlet oxygen, hypochlorite, and active hydroxyl radicals. ROS are released into the surrounding medium or into a membrane-enclosed subcellular organelle. One quick and sensitive method for measuring the generation of these metabolites is chemiluminescence (CL). Isoluminol amplified CL technique, is very sensitive and widely used to study respiratory burst (mainly extracellular production of ROS) induced in neutrophils.
Human neutrophils were isolated from buffy coats which obtained from healthy donors. The isolated neutrophils (3×10^6/ml) were suspended in Hanks' Balanced Salt Solution (HBSS) with Calcium and Magnesium. Neutrophils were pre-incubated with the compounds at different concentrations (0.1, 0.3, 1, 3 and 10 μM) for 30 min at 37° C. The black 96-well cell culture plates were coated with human fibrinogen (0.25 mg/ml in PBS), and incubated overnight at 4° C. or 2 hr at 37° C. Then the plates were washed with endotoxin-free PBS. The neutrophils were incubated (priming) with TNF-α (20 ng/ml) for 10 minutes at 37° C. Thereupon the 75 μl of cell suspension and 75 μl (Isoluminol+HRP solution) were added to each well. The chemiluminescence was recorded (every 25 sec for 250 sec) after fMLP (1 μM) activation using a Multilabel Reader victor3 (Perkin Elmer, USA). Background values, defined as the mean chemiluminescent values of isoluminol diluted in HBSS, were subtracted from all readings (CPS, count per second). The assays were done in duplicate or triplicate.

FGF-1 = target: T3, FGF-1 (Homo sapiens, UniProt P05230); assay: FGF-1 induced sprouting of HUVEC, spheroid-based cellular angiogenesis assay; settings: FGF-1 25 ng/mL preincubated with compound, 24 h
T3 construct: purchased Peprotech 100-17A
Protocol: as §1, §2, §3, §4, §5, §6, §7

VEGFR-2 = target: T4, VEGFR-2 (Homo sapiens, UniProt P35968); assay: VEGF-165 induced phosphorylation of VEGF-Receptor on HUVEC; settings: HUVEC preincubated 60 min, VEGF165 25 ng/mL 2 min; read-out: VEGFR-Phosphorylation inhibition IC50
T4 construct: endogenous in cells; host or cells: primary HUVEC
Protocol: Cell culture: Primary human umbilical vein endothelial cells (HUVECs) were routinely cultured in 0.1% gelatin pre-coated flasks or dishes, up to passage 6. […]
Rabbit primary antibodies for VEGFR-2, p-Tyr1175 were acquired from Cell Signaling Technology (Leiden, The Netherlands). Phospho-VEGFR-2 (Tyr1175) Sandwich ELISA Kit was from Cell Signaling Technology.
[…] Western blot analysis was performed using anti-phospho-VEGFR-2 antibody and total VEGFR-2 was used as a loading control after membrane stripping.
Inhibition of VEGFR-2-phosphorylation results are expressed as IC50 in microM [μM] versus VEGF-treated HUVECs control without inhibitory compound.

[3] = Homo sapiens, Neutrophil, 0.3 μM

T1 sequence (P09038 134-288): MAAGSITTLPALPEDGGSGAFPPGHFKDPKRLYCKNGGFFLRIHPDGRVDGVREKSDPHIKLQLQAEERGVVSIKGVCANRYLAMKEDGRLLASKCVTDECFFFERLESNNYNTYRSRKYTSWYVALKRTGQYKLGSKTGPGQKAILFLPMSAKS
T4 sequence (P35968 20-1356): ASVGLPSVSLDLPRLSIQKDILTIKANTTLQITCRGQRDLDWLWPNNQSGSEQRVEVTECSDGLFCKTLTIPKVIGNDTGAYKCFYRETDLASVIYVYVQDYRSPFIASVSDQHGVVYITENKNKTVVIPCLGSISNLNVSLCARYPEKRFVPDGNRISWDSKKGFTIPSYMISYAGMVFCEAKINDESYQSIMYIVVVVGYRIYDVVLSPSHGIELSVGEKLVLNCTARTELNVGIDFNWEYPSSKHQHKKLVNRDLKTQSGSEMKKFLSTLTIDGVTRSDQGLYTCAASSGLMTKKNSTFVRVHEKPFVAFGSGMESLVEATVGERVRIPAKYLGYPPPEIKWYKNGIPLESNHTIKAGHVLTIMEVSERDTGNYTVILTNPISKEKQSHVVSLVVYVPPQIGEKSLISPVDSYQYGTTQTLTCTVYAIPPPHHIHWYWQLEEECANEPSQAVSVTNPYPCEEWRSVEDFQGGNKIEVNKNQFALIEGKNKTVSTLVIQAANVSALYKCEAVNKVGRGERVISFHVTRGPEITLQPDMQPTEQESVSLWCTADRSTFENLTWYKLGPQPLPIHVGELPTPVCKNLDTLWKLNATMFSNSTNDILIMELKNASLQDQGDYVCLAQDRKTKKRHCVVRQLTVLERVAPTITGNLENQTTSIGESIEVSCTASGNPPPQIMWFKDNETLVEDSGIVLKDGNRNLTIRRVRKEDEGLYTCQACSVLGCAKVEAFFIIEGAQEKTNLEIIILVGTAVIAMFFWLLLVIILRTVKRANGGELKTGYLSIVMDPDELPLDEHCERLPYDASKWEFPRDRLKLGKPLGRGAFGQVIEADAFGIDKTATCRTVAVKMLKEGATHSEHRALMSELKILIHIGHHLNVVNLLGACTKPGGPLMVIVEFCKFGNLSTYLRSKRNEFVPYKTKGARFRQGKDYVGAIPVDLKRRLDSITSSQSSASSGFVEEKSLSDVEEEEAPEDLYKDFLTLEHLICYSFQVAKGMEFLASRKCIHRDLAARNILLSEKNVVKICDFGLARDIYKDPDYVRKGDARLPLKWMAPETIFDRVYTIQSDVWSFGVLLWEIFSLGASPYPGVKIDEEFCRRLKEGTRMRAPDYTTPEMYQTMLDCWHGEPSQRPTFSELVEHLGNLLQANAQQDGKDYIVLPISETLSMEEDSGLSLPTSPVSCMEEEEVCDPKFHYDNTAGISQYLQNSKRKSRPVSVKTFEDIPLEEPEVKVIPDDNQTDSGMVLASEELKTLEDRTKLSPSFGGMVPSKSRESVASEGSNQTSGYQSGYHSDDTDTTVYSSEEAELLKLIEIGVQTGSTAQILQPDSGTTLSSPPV
T3 sequence (P05230 whole entry): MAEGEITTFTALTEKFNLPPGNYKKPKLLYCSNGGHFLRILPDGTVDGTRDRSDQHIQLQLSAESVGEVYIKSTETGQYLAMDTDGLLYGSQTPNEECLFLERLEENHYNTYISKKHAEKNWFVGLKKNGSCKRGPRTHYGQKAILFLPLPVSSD

SMILES	Neutrophil adhesion inhibition (Human neutrophils [1])	IC50 (FGF-2)	IC50 (VEGF-A)	inhibition at 0.3 µM (Human neutrophils [2]; [3])	IC50 (FGF-1)	IC50 (VEGFR-2)	PMN ROS inhibition at 0.3 μM (Human neutrophils [2]; 0.3 μM)	IC50 (Human neutrophils [2]; Homo sapiens, Neutrophil)
O=C(O)c1cc(O)cc(C(=O)Nc2ccccc2-c2nnn[nH]2)c1O [IIa-001a-Tz, 3-(2-(1H-tetrazol-5-yl)phenylaminocarbonyl)-2,5-dihydroxybenzoic acid]	24.18%	9.8 µM	187 µM	74.2%				
O=C(O)c1cc(NC(=O)c2cc(O)cc(C(=O)O)c2O)cc(NC(=O)c2cc(O)cc(C(=O)O)c2O)c1 [IIb-010a, 3,5-Bis(2,5-dihydroxy-3-carboxybenzoylamino)benzoic acid]	59.84%	102 µM	28 µM	81.9%	≥ 200 µM			
O=C(O)c1cc(O)ccc1NC(=O)c1cc(O)cc(C(=O)O)c1O [IIa-006a, 3-(2-carboxy-4-hydroxyphenylaminocarbonyl)-2,5-dihydroxybenzoic acid]	20.29%	43 µM	121 µM	84.3%		2.9 µM		
CCOC(=O)Cc1cc(O)c(C(=O)Nc2ccccc2C(=O)OC)cc1O [IIIa-001a-E2, methyl 2-(4-(ethoxycarbonylmethyl)-2,5-dihydroxybenzamido)benzoate]	44.46%	33 µM	43 µM	69.7%	≥ 200 µM			
O=C(O)Cc1cc(O)c(C(=O)Nc2ccccc2C(=O)O)cc1O [IIIa-001a, 2-(4-(carboxymethyl)-2,5-dihydroxybenzamido)benzoic acid]	30.4%	10 µM	32 µM	74.8%	62 µM			
CCOC(=O)Cc1cc(O)c(C(=O)Nc2cc(C(=O)OCC)cc(C(=O)OCC)c2)cc1O [IIIa-015a-E3, diethyl 5-(4-(ethoxycarbonylmethyl)-2,5-dihydroxybenzamido)isophthalate]	61.22%	191 µM	87 µM	91.4%		7.2 µM		
O=C(O)c1cc(O)c(C(=O)Nc2cnccc2C(=O)O)cc1O [Ia-023a, 3-(4-carboxy-2,5-dihydroxybenzamido)isonicotinic acid]	13.37%	63 µM	143 µM	62%		≥ 100 µM		
O=C(Nc1ccc(O)cc1C(=O)O)c1cc(O)c(C(=O)Nc2ccc(O)cc2C(=O)O)cc1O [Ic-009a, 2-(2,5-dihydroxy-4-(4-hydroxy-2-carboxyphenylaminocarbonyl)benzamido)-5-hydroxy benzoic acid]	72.21%	202 µM	208 µM	72.8%	32 µM			
O=C(O)c1cc(O)c(C(=O)NC(C(=O)O)c2ccc(O)c(O)c2)cc1O (stereo not shown) [Ia-036a, 4-(Carboxy(3,4-dihydroxyphenyl)methylaminocarbonyl)-2,5-dihydroxybenzoic acid]	30.77%	37 µM	123 µM			1.6 µM	87.17%	
O=C(O)c1cc(O)c(COCc2cc(O)c(C(=O)O)cc2O)cc1O [IIIc-060a, 4-((2,5-Dihydroxy-4-carboxyphenyl)methoxymethyl)-2,5-dihydroxybenzoic acid]	41.38%	51 µM	114 µM	86.8%		1.3 µM		
O=C(O)c1ccc(C(=O)O)c(NC(=O)c2cc(O)cc(C(=O)O)c2O)c1 [IIa-012a, 2-(3-carboxy-2,5-dihydroxybenzamido)terephthalic acid]	7.5%		32 µM	44.8%		3.31 µM		0.313 µM
CCOC(=O)c1cc(O)c(C(=O)Nc2cnccc2C(=O)OCC)cc1O [Ia-023a-E2, ethyl 3-(4-(ethoxycarbonyl)-2,5-dihydroxybenzamido)isonicotinate]	34%	76 µM	141 µM	69.5%		6.6 µM		
CCOC(=O)c1cc(OC(C)=O)c(C(=O)Nc2ccccc2-c2nnn[nH]2)cc1OC(C)=O [Ia-001a-Tz-E1-A2, ethyl 4-(2-(1H-tetrazol-5-yl)phenylaminocarbonyl)-2,5-diacetoxybenzoate]	98.2%	≥ 200 µM	≥ 200 µM	49.9%	60 µM			
